Patent publication US8557767B2, “Synthetic apolipoprotein E mimicking polypeptides and methods of use” (UAB Research Foundation, priority 2007, dated 2013)

Legend:
[1] = tested on: monocyte chemotaxis protein-1 (MCP-1); experiment: LPS-induced MCP-1 in HUVEC; assay type: cell-based, human
Excerpt: The effect of the peptide on the inflammatory response of bacterial lipopolysaccaride (LPS), a potent inducer of cytokines and cell adhesion molecules was also examined.

[2] = tested on: C57BL/6J mice fed an atherogenic diet; experiment: Plasma cholesterol after one-time i.v. administration in C57BL/6J mice fed an atherogenic diet; assay type: in vivo
[3] = experiments where atherogenic lipoprotein reduction was observed; CLiP; cited from earlier work
[4] = tested on: B-100-containing particles; experiment: Association of peptide with mouse apo B-100-containing particles; assay type: binding; conditions: LDL-R (null) and C57BL6 on normal chow
Excerpt: (§1) Although Ac-hE-18A-NH2 enhanced the hepatic uptake and degradation of atherogenic lipoproteins in apo E null mice, dual knockout mice (LDL-R(null)-apo E(null)), and C57BL/6 on an atherogenic diet, the peptide had no effect on the plasma cholesterol levels of C57BL/6 on normal chow, LDL-R(null) on normal chow or on a Western diet. […] However, the peptide is able to associate with human LDL (containing apo B-100) and VLDL and is able to enhance uptake and degradation of atherogenic human lipoproteins in HepG2 cells and in LDL-R (null) mouse model (Garber, D. W. et al. Atherosclerosis. 163:229-237 2003). The reason for the difference in the properties of apo B-100-containing human LDL and mouse LDL is not clear.

[5] = tested on: C57BL/6 on normal chow, LDL-R(null) mice; experiment: Plasma cholesterol in C57BL/6 on normal chow and LDL-R(null) mice; assay type: in vivo; conditions: LDL-R(null) on normal chow or on a Western diet
Excerpt: as §1

[6] = tested on: plasma LDL from WHHL rabbits; experiment: Association of 125I-labelled peptide with WHHL rabbit plasma lipoproteins (CLiP); assay type: binding
Procedure: 100 μg of the ^125I-labelled peptide was mixed with 1 ml of plasma from 6 month old WHHL rabbit. After incubation for 1 h at room temperature, the plasma was subjected to CLiP analysis (66). Radioactivity in different fractions was determined and plotted on the CLiP profile. […] This improvement was associated with a reduction in 2 markers of oxidative stress.

human VLDL = conditions: cited from earlier work
[7] = tested on: atherogenic apo B-containing lipoproteins in human plasma; conditions: cited from earlier work
[8] = tested on: MEF 1 cells with induced LDL receptors; conditions: cited from earlier work
[9] = tested on: THP-1 monocyte derived macrophages; experiment: Secretion of de novo synthesized apo E by THP-1 monocyte derived macrophages; assay type: cell-based; conditions: 25 ug/10^6 cells, 35S-methionine, densitometry
Procedure: Bands were developed by autoradiography and quantitated by densitiometry.
THP-1 monocyte derived macrophages were metabolically labeled with ^35S-methionine in RPMI medium containing FBS. Macrophages (10^6 cells) were treated with the dual-domain peptide (25 tjg/10^6 cells) for 5. Conditioned medium was collected and cells were washed with cold PBS. Preparative cocktail containing MEM, plus lupeptin (50 tjg/ml), pepstatin A (50 tjg/ml), and aprotinin (100 kallikrein inactivating units/ml) were added to the medium to preserve oxidative and proteolytic damage. The medium from control cells and peptide-treated medium were concentrated to equal volume and loaded quantitatively on SDS-polyacrylamide gels (4 to 20% PAGE for 2.5 h at 4° C. at 125 volts). The gel was exposed to x-ray film for overnight.

apo E null mice = experiment: Atherosclerosis inhibition in apo E null mice, retroorbital administration, en face lesion analysis; assay type: in vivo
Procedure: Extent of lesion is analyzed by en face preparation and staininf with Oil Red O.
Atherosclerosis inhibition studies in apo E null mice that develop atherosclerosis spontaneously were also performed. […] Lesion analysis was performed using the en face preparations. Sixteen week old mice would have well established lesions. […] Detailed studies on the mechanism of the inhibition of atherosclerosis are described below.

[10] = 3 mg/kg; 6 weeks of 1% cholesterol diet, one month after administration; not significantly different from control
Excerpt: For these studies, NZW rabbits that respond to diet can be selected. All animals are fed a 1% cholesterol diet and their cholesterol values determined three days after the diet initiation. Twenty rabbits with similar cholesterol levels can be selected and changed back to a normal diet. After 15 days on a normal diet, cholesterol values can once again be determined to check if the values returned to normal. Animals whose cholesterol values have not returned to pre-diet levels can be monitored until they are normalized or removed from the study. Ten rabbits in each group are selected and simultaneous peptide administration and 1% diet initiation can follow. […] To study dose-response effects, smaller number of animals (five in each group can be administered three doses of peptide (5 mg/kg, 3 mg/kg and 1.5 mg/kg). After the initial experiments, the dose of the peptide can be decided. A solution of the peptide (sterile saline) can be injected through the ear vein, once a week for the duration of the study (based on previous experience, for 6 weeks). The study parameters include total cholesterol, lipoprotein levels, LOOH levels, PON activity in the plasma. At the end of six weeks, the rabbits are euthanized and histology assessed.

[11] = peptide-associated VLDL, absence of apo E

For “Ac-LRKLRKRLLRDWLKAFYDKVAEKLKEAF-NH2 [Ac-hE-18A-NH2]”, the “effect on MCP-1” value [1] was “also inhibited”, the “time for which lower total cholesterol levels were observed vs control” value ([2]; 100 ug i.v. one time, continued atherogenic diet) was no less than 8 days and the “initial decrease of plasma cholesterol” value ([2]; 100 ug i.v., n=9) was greater than 65%. The “effect on HDL levels” value [3] was “did not reduce HDL levels”, the “association with B-100-containing particles” value [4] was “not able to associate” and the “effect on plasma cholesterol levels” value [5] was “no effect”. For the same substance, the “association with WHHL plasma lipoproteins” value ([6]; 100 ug 125I-labelled peptide in 1 ml plasma, 1 h room temperature) was “associates with LDL”, the “LOOH content of peptide-treated WHHL plasma LDL” value ([6]; compared to plasma from untreated rabbits) was “reduced amounts of LOOH” and the “interaction with VLDL” value (human VLDL) was “displacement of apo E from VLDL”. The “enhanced degradation of VLDL compared to VLDL alone” value (human VLDL; [11]) was “three”, the “enhanced uptake of VLDL compared to VLDL alone” value (human VLDL; [11]) was “six” and the “association with atherogenic apo B-containing lipoproteins” value [7] was “associates with atherogenic apo B-containing lipoproteins”. For the same substance, the LDL internalization enhanced [8] was “five”, the “intensity of 36 kDa apo E band relative to medium of control cells” value [9] was 4 times and the “decreased lesion compared to control group” value (apo E null mice; 50 ug/mouse retroorbital, 3 times weekly, four weeks, sixteen week old female apo E null mice, en face, p<0.001) was 40%. For the same substance, the “loss of animals / visible injury” value (apo E null mice; 12 retroorbital administrations, 50 ug/mouse) was “no loss of animals and no visible injury to animals was observed”, the average body weight [10] was 4.8 ± 0.4 kg and the “average daily food intake” value [10] was 0.17 ± 0.03 kg.
